# From US8507472B2 (priority 2010, dated 2013)
# Read-outs that look alike come from different tables or passages of the source.
# How the values were obtained:
# [1] = system: Fusarium graminearum; assay: microbe, parasite or virus in culture; format: cell-based
# [2] = system: Phytophthora infestans; format: in vivo
# [3] = system: Phakopsora pachyrhizi; assay: Phakopsora test (Sojabohnen)/protective; format: in vivo; conditions: 250 ppm active compound, protective, evaluation 1 day after inoculation
# Description: (§1) Solvent: 28.5 parts by weight of acetone
# (§2) Emulsifier: 1.5 parts by weight of alkylaryl polyglycol ether
# (§3) To produce a suitable preparation of active compound, 1 part by weight of active compound is mixed with the stated amount of solvent, and the concentrate is diluted with water and the stated amount of emulsifier to the desired concentration.
# […] 1 day after the treatment, the plants are inoculated with an aqueous spore suspension of Phakopsora pachyrhizi. The plants are then placed in a greenhouse at 80% relative atmospheric humidity and 20° C.
# Evaluation is carried out 1 day after the inoculation. 0% means an efficacy which corresponds to that of the control, whereas an efficacy of 100% means that no infection is observed.
# [4] = system: Fusarium graminearum; format: in vivo
# [5] = system: Leptosphaeria nodorum; assay: Leptosphaeria nodorum test (wheat)/protective; format: in vivo
# In short: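 Young wheat plants were sprayed protectively, then inoculated 1 day later with L. nodorum spores and held 48 h at 100% humidity and 22° C. They were then kept in a greenhouse at 90% humidity and 22° C. Efficacy was scored 7-9 days post-inoculation, where 0% equals control and 100% means no infection.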
# [6] = system: DON/AcDON production; assay: microbe, parasite or virus in culture; format: cell-based, Fusarium graminearum; conditions: 7 days at 28° C.
# [7] = log P determination by HPLC retention times (alkan-2-one calibration)
# [8] = system: Botrytis cinerea; assay: Botrytis test (bean)/protective; format: in vivo; conditions: 100 ppm active compound, protective, evaluation 2 days after inoculation
# In short: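 Young bean plants sprayed at the stated rate with compound in acetone/dimethylacetamide plus alkylaryl polyglycol ether emulsifier, diluted in water. Once dry, each leaf got 2 agar pieces colonized by Botrytis cinerea; kept dark at about 20° C., 100% humidity. Infected area scored after 2 days; 0% = control, 100% = no infection.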
# [9] = system: Alternaria solani; assay: Alternaria test (tomato)/protective; format: in vivo
# In short: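 Young tomato plants were sprayed with compound (DMF/emulsifier formulation diluted in water) and inoculated with A. solani spores 1 day later. Plants were kept 24 h at 100% RH and 22 °C, then at 96% RH and 20 °C. Efficacy was scored 7 days post-inoculation, where 0% equals untreated control and 100% means no infection.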
# [10] = system: Venturia inaequalis; assay: Venturia test (apple)/protective; format: in vivo; conditions: 100 ppm active compound, protective, evaluation 10 days after inoculation
# In short: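 Young apple plants sprayed protectively with compound (in acetone/dimethylacetamide with alkylaryl polyglycol ether, diluted in water) at the stated rate, then inoculated with V. inaequalis conidia once dry. Held 1 day at ~20° C, 100% humidity, then greenhouse ~21° C, ~90% humidity; efficacy scored 10 days post-inoculation (0% = control, 100% = no infection).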
# [11] = system: Uromyces appendiculatus; assay: Uromyces test (bean)/protective; format: in vivo
# In short: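 Young bean plants sprayed with compound formulated in acetone/dimethylacetamide with emulsifier, inoculated with Uromyces appendiculatus spores after drying, held 1 day at ~20 °C and 100% humidity, then greenhouse ~21 °C, ~90% humidity. Efficacy scored 10 days post-inoculation, 0% = untreated control, 100% = no infection.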
# [12] = system: Fusarium nivale (var. majus); assay: Fusarium nivale (var. majus) test (wheat)/protective; format: in vivo; conditions: 1000 ppm active compound, protective, evaluation 5 days after inoculation
# In short: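 Protective spray of young wheat plants at the stated rate (compound in dimethylacetamide with emulsifier, diluted in water), then inoculation with Fusarium nivale spores once dry. Plants kept at 10 °C and 100% humidity; scored 5 days after inoculation as % efficacy, where 0% equals untreated control and 100% means no infection.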
# [13] = system: Pyrenophora teres; assay: Pyrenophora teres test (barley)/protective; format: in vivo
# In short: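 Protective test: young barley plants sprayed at the stated rate with compound in DMF/alkylaryl polyglycol ether diluted with water, inoculated with P. teres spores 1 day later, kept 48 h at 100% rel. humidity and 22° C., then greenhouse at 80% and 20° C. Efficacy scored 7-9 days post-inoculation (0% = control, 100% = no infection).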
# [14] = system: Sphaerotheca fuliginea; assay: Sphaerotheca test (cucumber)/protective; format: in vivo
# In short: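 Protective test: young cucumber plants sprayed with compound (DMF/alkylaryl polyglycol ether concentrate diluted in water) at the stated rate, inoculated with S. fuliginea spores 1 day later, then kept in greenhouse at 23 °C, 70% RH. Efficacy scored 7 days post-inoculation; 0% equals untreated control, 100% means no infection.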
# [15] = system: Puccinia triticina; assay: Puccinia triticina test (wheat)/protective; format: in vivo
# In short: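 Protective test: young wheat plants sprayed with compound (dimethylacetamide/alkylaryl polyglycol ether formulation, water-diluted) at stated rate, then inoculated with Puccinia triticina spores once dry; 48 h at 20 °C, 100% RH, then greenhouse ~20 °C, ~80% RH. Efficacy scored 8 days post-inoculation, 0% = control, 100% = no infection.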
# [16] = system: Pyricularia oryzae; conditions: in vivo
# [17] = system: Septoria tritici; assay: Septoria tritici test (wheat)/protective; format: in vivo; conditions: in vivo
# In short: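 Young wheat plants were sprayed protectively with compound (dimethylacetamide/emulsifier formulation diluted in water), then inoculated with Septoria tritici spores after drying. Incubation was 48 hours at 20° C and 100% humidity, then 60 hours at 15° C and 100% humidity, then greenhouse at about 15° C, 80% humidity; efficacy was scored 21 days post-inoculation (0% = control, 100% = no infection).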
# [18] = system: Gibberella zeae; conditions: in vivo
# [19] = system: Rhizoctonia solani; assay: Rhizoctonia test (rice)/protective; format: in vivo; conditions: 250 ppm active compound, protective, evaluation 4 days after inoculation
# Description: as §1, §2, §3
# To test for protective activity, young rice plants are sprayed with the active compound preparation at the stated application rate. 1 day after the treatment, the plants are inoculated with hyphae of Rhizoctonia solani. The plants are then placed in a greenhouse at 100% relative atmospheric humidity and 25° C.
# Evaluation is carried out 4 days after the inoculation. 0% means an efficacy which corresponds to that of the control, whereas an efficacy of 100% means that no infection is observed.
# [20] = system: Cochliobolus miyabeanus; assay: Cochliobolus test (rice)/protective; format: in vivo; conditions: 250 ppm active compound, protective, evaluation 4 days after inoculation
# [21] = 500 ppm active compound, tomato, protective, evaluation 7 days after inoculation
Compound,efficacy in % [8] [%],efficacy in % [10] [%],efficacy in % [12] [%],% inhibition of the fungal growth of Fusarium graminearum at 50 μM [1] [%],efficacy in % ([2]; in vivo) [%],efficacy in % [16] [%],efficacy in % ([4]; in vivo) [%],efficacy in % ([5]; in vivo) [%],efficacy in % [17] [%],% inhibition of DON/AcDON at 50 μM [6] [%],efficacy in % [18] [%],efficacy in % ([9]; in vivo) [%],efficacy in % [19] [%],efficacy in % ([11]; in vivo) [%],efficacy in % ([13]; in vivo) [%],efficacy in % ([14]; in vivo) [%],efficacy in % ([15]; in vivo) [%],efficacy in % [20] [%],further results
"CCC(=O)Nc1cc(-c2c(-c3ccc(F)cc3)nn3c2CCCC3)ccn1 [Example 5, N-{4-[2-(4-Fluorophenyl)-4,5,6,7-tetrahydropyrazolo[1,5-a]pyridin-3-yl]pyridin-2-yl}propanamide]",100,98,100,,,,,,,,,,,,,,,,"inhibition at 50 µM ([1]; Fusarium graminearum, 72 h, read-out: % inhibition of the fungal growth of Fusarium graminearum at 50 μM): 100%; efficacy in % [2, 21]: 95%; efficacy in % [3]: 80%; efficacy in % ([4]; 1000 ppm active compound, barley, protective, evaluation 5 days after inoculation): 100%; efficacy in % ([5]; 500 ppm active compound, wheat, protective, evaluation 7-9 days after inoculation): 94%; inhibition at 50 µM ([6]; Fusarium graminearum, 168 h): 99%; chromatographic logP ([7]; log P(HCOOH), HCOOH, preparation examples in the text): 1.97; chromatographic logP ([7]; log P, values marked [a] in Table 1): 1.97; chromatographic logP ([7]; log P, values marked [b] in Table 1): 2.58; efficacy in % [9, 21]: 100%; efficacy in % ([11]; 100 ppm active compound, bean, protective, evaluation 10 days after inoculation): 98%; efficacy in % ([13]; 500 ppm active compound, barley, protective, evaluation 7-9 days after inoculation): 100%; efficacy in % ([14]; 500 ppm active compound, cucumber, protective, evaluation 7 days after inoculation): 95%; efficacy in % ([15]; 1000 ppm active compound, wheat, protective, evaluation 8 days after inoculation): 100%"
CC(C)C(=O)Nc1cc(-c2c(-c3ccccc3)nn3c2CCCC3)ccn1 [Example 29],100,95,86,100,90,95,94,90,71,99,80,100,100,94,100,83,94,95,
CC(C)CC(=O)Nc1cc(-c2c(-c3ccccc3)nn3c2CCCC3)ccn1 [Example 31],90,100,100,97,80,98,100,90,100,99,80,94,100,94,100,95,94,95,
O=C(Cc1ccccc1)Nc1cc(-c2c(-c3ccc(F)cc3)nn3c2CCCC3)ccn1 [Example 34],99,95,100,98,95,95,100,95,93,99,80,100,85,95,94,100,94,90,
